These results are taken from US20140121235A1, “Method for Treating S6K-Overexpressing Cancers” (Rush University Medical Center, priority 2012, published 2014).

Assay [1] has as its system ribosomal protein S6^S235/S236 phosphorylation. Put plainly: Western blot of S6 phosphorylation in A375 cells. The class given is cell-based. To be noted: A375 cells; A77 1726 dose-dependent or 100 μM, rapamycin 20 nM, PPP 1 μM. Here is the method: (§1) A375 cells seeded in a 6-well plate were starved in DMEM medium containing 0.5% FBS for 2 hr and treated with the indicated concentration of A77 1726 or PLX 4720 (1 μM) for another 2 hr (A) or treated with A77 1726 (100 μM) for the indicated time (B & C). Cells were harvested and analyzed for protein phosphorylation by specific antibodies as indicated. Protein loading was monitored by stripping membrane and re-probing with antibodies against non-phosphorylated proteins. […] A375 cells seeded in a 6-well plate were starved in DMEM medium containing 05% FBS for 2 hr and treated with the indicated concentration of A77 1726 in the absence or presence of uridine (200 μM). Phosphorylated and total proteins were analyzed by Western blot as described above.
(§2) A375 cells seeded in 6-well plates were starved in DMEM medium containing 0.5% FBS for 2 hr and then pre-treated with vehicle (0.1% dimethyl sulfoxide), LY294002 (10 μM) (A), PPP (1 μM) (B), or the inhibitors of the MAP kinase pathway (PLX4720, 1 μM; U0126, 10 μM; PD98059, 10 μM) (C) for 1 hr. Cells were then treated with A77 1726 (100 μM) or rapamycin (20 nM) as indicated for 2 hr. Cells were harvested and analyzed for protein phosphorylation by specific antibodies as indicated. Protein loading was monitored by stripping membrane and re-probing with antibodies against non-phosphorylated proteins.
(§3) Cells grown in 6-well plates were harvested and lysed in NP-40 lysis buffer (50 mM Tris-HCI (pH 8.0), 150 mM NaCl, 1% NP-40, 5 mM EDTA, 10 μg/ml aprotinin, 10 μg/ml leupeptin, and 1 mM phenylmethylsulfonyl fluoride). After incubation on ice for 30 min, the cell lysates were prepared by spinning down at 4° C., 15,000 rpm for 15 min. After electrophoresis and transfer to Immobolin membrane, proteins of interest were probed with their specific antibodies, followed by horseradish peroxidase-conjugated goat anti-rabbit IgG and SuperSignal Western Pico enhanced chemiluminoscence substrate (Pierce Chemical Co., Rockford, Ill.).
(§4) The PI-3 and MAP kinase pathways play an important role in cell proliferation, differentiation, and cell cycle progress. Multiple genes in these two pathways are frequently mutated and have a commanding role in driving tumorigenesis and tumor cell proliferation (2; 3). […] Here we tested whether A77 1726 affected the activation of MAP and PI-3 kinase pathways. A375 cells grown in 6-well plates were starved in the media containing 0.5% FBS for 2 hr and then treated with the indicated concentration of A77 1726. […] We next explored the effect of A77 1726 in phosphorylation of the molecules in the PI-3 kinase pathway.
Background: In western blotting, separated proteins are transferred to a membrane and probed.

Assay [2] has as its system ERK1/2^T202/Y204 and MEK1/2^S217/S221 phosphorylation. Put plainly: Western blot of MAP kinase pathway phosphorylation in A375 cells. The class given is cell-based. Conditions: for block of A77 1726-induced ERK1/2 and MEK1/2 phosphorylation: A375 cells pre-treated with inhibitor 1 hr, then A77 1726 100 μM 2 hr; for effect on ERK1/2 and MEK phosphorylation, inhibitor alone: A375 cells, PLX 4720 1 μM, rapamycin 20 nM, PPP 1 μM. How it is done: as §1, §2, §3, §4

Assay [3] relates to AKT^S473 and S6K1^T389 phosphorylation. Put plainly: Western blot of PI-3 kinase pathway phosphorylation in A375 cells. The class given is cell-based. Conditions: for effect on AKT^S473 phosphorylation in A77 1726-treated cells: A375 cells, MAP kinase pathway inhibitor plus A77 1726. How it is done:
as §1, §2, §3, §4

For assay [4], the system named is A375 cells. Put plainly: Cell cycle analysis (propidium iodine, flow cytometer). Conditions: for effect on cell cycle, inhibitor alone: PLX4720 1 μM, U0126 10 μM, PD98059 10 μM, rapamycin 20 nM, LY294002 10 μM. The class given is cell-based. How it is done:
(A) Ability of uridine to relieve the cell cycle arrest in the S phase. A375 cells grown in 6-well plates were treated with the indicated concentration of A771726 with or without uridine (200 μM) for 24 hr. Cell cycle was analyzed in a flow cytometer as described in Materials and Methods. (B) Effect of the MAP kinase pathway inhibitors on A77 1726-mediated cell cycle arrest in the S phase. A375 cells were treated with A771726 (100 μM) in the absence or presence of 0.1% DMSO, […] (1 μM), U0126 (10 μM), PD98059 (10 for 24 hr. Single cell suspensions were prepared and analyzed for cell cycle in a flow cytometer. (C) Effect of the PI-3 kinase pathway inhibitors and their effect on A77 1726-mediated cell cycle arrest. A375 cells were treated with A77 1726 (100 μM), rapamycin (20 nM), and/or LY294002 (10 μM). After incubation for 24 hr, cells were harvested and analyzed for cell cycle progress.
(§5) Cells were grown in complete RPMI1640 medium with 10% fetal bovine serum in 6-well plates. Upon 60% confluence, the cells were treated with vehicle or with indicated concentrations of A77 1726 or various inhibitors as indicated for 24 hr. Cells were pulsed with 10 μM BrdU for 2 hr. Cells were harvested, denatured with 2N HCl for 5 min at room temperature followed by neutralization with 0.1M borate buffer (pH 8.5). After washing and blocking with normal mouse serum, the cells were stained with an Alexa Fluor 488-conjugated anti-BrdU monoclonal antibody (BD Bioscience), followed by analysis in a flow cytometer. Alexa Fluor 488-conjugated mouse IgG was included as a control. For cell cycle analysis, the cells were harvested and fixed with 2 ml cold 70% ethanol in PBS overnight at 4° C. Fixed cells were then washed 3 times with PBS, treated with RNaseA (100 μg/ml in 0.5 ml PBS). After incubation at room temperature for 30 min, cells were stained with 2.5 μl propidium iodine (10 mg/ml.) and immediately analyzed for DNA content in a flow cytometer.
Background: In flow cytometry, cells or beads pass a laser one at a time.

For assay [5], the system named is A375 cells. Put plainly: BrdU incorporation (DNA replication), flow cytometry. Conditions: for block of A77 1726-induced BrdU incorporation / DNA synthesis: A77 1726 100 μM plus inhibitor; for effect on DNA replication (BrdU labeling), inhibitor alone: PLX4720 1 μM, U0126 10 μM, rapamycin 20 nM, LY294002 10 μM. The class given is cell-based. Here is the method: (A) The effect of uridine to A77 1726-induced DNA synthesis. A375 cells were treated with the indicated concentration of A771726 in the absence or presence of uridine (200 μM) for 22 hr. After pulsing with BrdU (10 µM) for 2 hr, cells were harvested and analyzed for BrdU incorporation by staining with an Alexa Fluor-488-conjugated anti-BrdU monoclonal antibody followed by flow cytometry. (B) Effect of the MAP kinase pathway inhibitors to A77 1726-stimulated BrdU incorporation. A375 cells were treated with A77 1726 (100 μM) in the presence of 0.1% DMSO, PLX4720 (1 μM), U0126 (10 µM), PD98059 (10 μM). After incubation for 22 hr the cells were pulsed with BrdU for 2 hr. Single cell suspensions were stained for BrdU incorporation and analyzed for cell cycle in a flow cytometer as described in (A). (C) Effect of the PI-3 kinase pathway inhibitors and their effect on A77 1726-stimualted BrdU incorpration. A375 cells were treated with A771726 (100 μM), rapamycin (20 nM), and/or […] (10 μM). After incubation for 22 hr, cells were pulsed with BrdU for 2 hr, harvested and analyzed for BrdU labeling in a flow cytometer.
as §5
(Dividing cells build labelled thymidine or BrdU into new DNA.)

For assay [6], the system named is A375 cells. Put plainly: Cell proliferation assay (ATP-based Cell-Glo). How it is done: A375 cells were seeded in 96-well plates (2000 cells/well) and incubated the indicated concentrations of A77 1726 for 72 hr in the absence or presence of various concentrations PLX4720 (A, C) with or without uridine (200 μM) (B, D). Cell proliferation was analyzed by an ATP-based Cell-Glo assay. One representative of three experiments with similar results was shown. *p<0.01.
A375 cells were grown in complete RPMI 1640 medium supplemented with 10% fetal bovine serum. The cells were seeded in 96-well plates at the density of 2,000/well in the absence or presence of various concentrations of A77 1726, PLX4720, or uridine (200 μM). After incubation for 72 hr, cell proliferation was monitored by using an ATP-based Cell-Glo assay (Promegan, Madison, Wis.) following the manufacturer's instruction.

`COc1cc([C@@H]2c3cc4c(cc3[C@H](O)[C@H]3COC(=O)[C@@H]23)OCO4)cc(OC)c1OC` [PPP]: the “effect on S6^S235/S236 phosphorylation” value in assay [1] is given as “had no effect”. Besides, in assay [2], the “block of A77 1726-induced ERK1/2 and MEK1/2 phosphorylation” value was “abrogated”; the “effect on ERK1/2 and MEK phosphorylation, inhibitor alone” value was “had no effect”. In assay [3] (A375 cells pre-treated with LY294002 10 μM or PPP 1 μM), the “block of A77 1726- and rapamycin-induced AKT phosphorylation” value is “largely blocked”.
Consider `COc1cccc(-c2cc(=O)c3ccccc3o2)c1N` [PD98059], for which, in the assay with A375 cells [4] (A375 cells, 24 hr), the “effect on cell cycle, inhibitor alone” value is given as “arrest of the cell cycle in G1 phase”. Besides, the “block of A77 1726-induced ERK1/2 and MEK1/2 phosphorylation” value in assay [2] is listed as “unable to block”. The “effect on AKT^S473 phosphorylation in A77 1726-treated cells” value (shortened to “effect on AKT^S473 phosphorylation”) in assay [3] is “further increase”. In addition, the “block of A77 1726-induced BrdU incorporation / DNA synthesis” value in the assay with A375 cells [5] is recorded as “partially blocked”.
Consider `CCCS(=O)(=O)Nc1ccc(F)c(C(=O)c2c[nH]c3ncc(Cl)cc23)c1F` [PLX4720], for which the “effect on cell cycle, inhibitor alone” value with A375 cells [4] (A375 cells, 24 hr) is reported as “arrest of the cell cycle in G1 phase”. In addition, in assay [2], the “block of A77 1726-induced ERK1/2 and MEK1/2 phosphorylation” value is given as “able to block”; the “effect on ERK1/2 and MEK phosphorylation, inhibitor alone” value is “inhibited”. For the same molecule, the “effect on AKT^S473 phosphorylation” value in assay [3] was “further increase”. In the assay with A375 cells [5], the “block of A77 1726-induced BrdU incorporation / DNA synthesis” value is listed as “able to block” and the “effect on DNA replication (BrdU labeling), inhibitor alone” value is “completely block DNA replication”. The “effect on A375 cell proliferation” value in the assay with A375 cells [6] (PLX4720 100 or 500 nM by itself) is recorded as “inhibited”. Also, in the assay with A375 cells [6] (PLX4720 at 1 nM by itself), the “effect on A375 cell proliferation” value is “had no effect”. For the same molecule, the “effect on A375 cell proliferation in combination with A77 1726” value in the assay with A375 cells [6] (in the absence or presence of uridine) was “additive effect”.
For the molecule `N#CC(=C(/N)Sc1ccccc1N)/C(C#N)=C(\N)Sc1ccccc1N` [U0126], the “effect on cell cycle, inhibitor alone” value with A375 cells [4] (A375 cells, 24 hr) is “arrest of the cell cycle in G1 phase”. Moreover, the “block of A77 1726-induced ERK1/2 and MEK1/2 phosphorylation” value in assay [2] was “able to block”. Also, the “effect on AKT^S473 phosphorylation” value in assay [3] was “further increase”. In addition, in the assay with A375 cells [5], the “block of A77 1726-induced BrdU incorporation / DNA synthesis” value is given as “able to block” and the “effect on DNA replication (BrdU labeling), inhibitor alone” value is listed as “completely block DNA replication”.
As for `CNC(=O)c1cc(Oc2ccc(NC(=O)Nc3ccc(Cl)c(C(F)(F)F)c3)cc2)ccn1` [BAY 43-9006], the “block of A77 1726-induced ERK1/2 and MEK1/2 phosphorylation” value in assay [2] is “able to block”. Also, the “effect on AKT^S473 phosphorylation” value in assay [3] is reported as “further increase”.
For the molecule `O=c1ccn([C@@H]2O[C@H](CO)[C@@H](O)[C@H]2O)c(=O)[nH]1` [Uridine, uridine], in the assay with A375 cells [4] (A375 cells treated with A77 1726 at three concentrations plus uridine), the “effect on cell cycle of A77 1726-treated cells” value was “almost normalize cell cycle”. For the same molecule, the “effect on cell cycle arrest, uridine alone” value in the assay on A375 cells [4] (A375 cells, uridine 200 μM, 24 hr) is recorded as “little effect”.
